Data taken from patent US9370569B2 (priority 2014, dated 2016).

Target: influenza RNA polymerase (Influenza A virus, UniProt P03431)
Assay: Influenza polymerase assay (radiolabeled nucleotide incorporation)
Assay type: biochemical
Conditions: nucleotide triphosphates in influenza polymerase assay

Sequence of influenza RNA polymerase (P03431 whole entry, looked up): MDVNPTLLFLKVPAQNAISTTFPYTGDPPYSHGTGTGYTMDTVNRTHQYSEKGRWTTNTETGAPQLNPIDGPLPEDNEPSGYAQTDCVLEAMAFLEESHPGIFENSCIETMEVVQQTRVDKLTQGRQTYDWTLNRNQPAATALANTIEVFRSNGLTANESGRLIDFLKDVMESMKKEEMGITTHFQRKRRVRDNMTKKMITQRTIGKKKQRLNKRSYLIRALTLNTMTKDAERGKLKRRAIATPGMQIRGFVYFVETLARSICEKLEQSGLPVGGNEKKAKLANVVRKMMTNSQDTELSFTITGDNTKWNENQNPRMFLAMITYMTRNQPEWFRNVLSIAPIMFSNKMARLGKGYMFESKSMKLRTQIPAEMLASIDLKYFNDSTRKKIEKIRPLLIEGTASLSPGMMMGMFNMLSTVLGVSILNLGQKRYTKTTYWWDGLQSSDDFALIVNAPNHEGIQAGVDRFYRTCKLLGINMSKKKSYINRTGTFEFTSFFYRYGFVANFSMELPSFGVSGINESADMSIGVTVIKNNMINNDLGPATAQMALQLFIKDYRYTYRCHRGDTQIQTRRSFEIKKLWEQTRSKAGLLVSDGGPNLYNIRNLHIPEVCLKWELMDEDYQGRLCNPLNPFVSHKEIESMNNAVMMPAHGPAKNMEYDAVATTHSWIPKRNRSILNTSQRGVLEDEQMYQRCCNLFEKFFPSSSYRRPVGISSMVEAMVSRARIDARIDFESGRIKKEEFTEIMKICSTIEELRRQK

SMILES	IC50
O=c1ccn([C@@H]2O[C@@](COP(=O)(O)OP(=O)(O)OP(=O)(O)O)(C(F)F)[C@@H](O)[C@H]2O)c(=O)[nH]1 [TPP-1]	10 to 100 µM
O=c1[nH]c(=O)n([C@@H]2O[C@@](COP(=O)(O)OP(=O)(O)OP(=O)(O)O)(C(F)F)[C@@H](O)[C@H]2O)cc1Cl [TPP-2]	10 to 100 µM
O=c1[nH]c(=O)n([C@@H]2O[C@@](COP(=O)(O)OP(=O)(O)OP(=O)(O)O)(C(F)F)[C@@H](O)[C@H]2O)cc1F [TPP-3]	10 to 100 µM
Nc1ccn([C@@H]2O[C@@](COP(=O)(O)OP(=O)(O)OP(=O)(O)O)(C(F)F)[C@@H](O)[C@H]2O)c(=O)n1 [TPP-4]	< 10 µM
Nc1nc(=O)n([C@@H]2O[C@@](COP(=O)(O)OP(=O)(O)OP(=O)(O)O)(C(F)F)[C@@H](O)[C@H]2O)cc1Cl [TPP-5]	10 to 100 µM
Nc1nc(=O)n([C@@H]2O[C@@](COP(=O)(O)OP(=O)(O)OP(=O)(O)O)(C(F)F)[C@@H](O)[C@H]2O)cc1F [TPP-6]	< 10 µM
Nc1nc(N)c2ncn([C@@H]3O[C@@](COP(=O)(O)OP(=O)(O)OP(=O)(O)O)(C(F)F)[C@@H](O)[C@H]3O)c2n1 [TPP-7]	> 100 µM
Nc1ncnc2c1ncn2[C@@H]1O[C@@](COP(=O)(O)OP(=O)(O)OP(=O)(O)O)(C(F)F)[C@@H](O)[C@H]1O [TPP-8]	< 10 µM
Nc1ncnc2ncn([C@@H]3O[C@@](COP(=O)(O)OP(=O)(O)OP(=O)(O)O)(C(F)F)[C@@H](O)[C@H]3O)c12 [TPP-9]	< 10 µM
Nc1nc2c(ncn2[C@@H]2O[C@@](COP(=O)(O)OP(=O)(O)OP(=O)(O)O)(C(F)F)[C@@H](O)[C@H]2O)c(=O)[nH]1 [TPP-10]	< 10 µM
